The results in this text go back to patent publication US12102648B2, “Orally-bioavailable nucleoside analogs” (priority 2021, dated 2024).

A short description of this series: in vitro. It is filed as in vitro ADME. Conditions: human. The gist of the method:
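Permeability measured in both directions across 19-day Caco-2 layers with TEER above 600 […], incubated at 37° C without shaking; donor and receiver sampled at 10 and 90 min for LC/MS/MS. Derived values: Papp (cm/s), efflux ratio, recovery.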

Where [1] appears, read: Caco-2 monolayer, apical to basolateral, 90-minute incubation, read-out: Papp, A-B.
Where [2] appears, read: Caco-2 monolayer, basolateral to apical, 90-minute incubation, read-out: Papp, B-A.
The mark [3] stands for this setting: Caco-2 monolayer, ER>2 indicates potential efflux transporter substrate, read-out: ER (efflux ratio).

Like-named read-outs stand apart in the source and are kept apart here.

As to `CCCCCOC(=O)Nc1ncnn2c([C@]3(C#N)O[C@H](COC(=O)C(C)C)[C@@H](O)[C@H]3O)ccc12` [Compound 92, ((2R,3S,4R,5R)-5-cyano-3,4-dihydroxy-5-(4-(((pentyloxy)carbonyl)amino)pyrrolo[2,1-f][1,2,4]triazin-7-yl)tetrahydrofuran-2-yl)methyl isobutyrate], for the setting “Caco-2”, the Papp A→B at 90 min turned out to be 2.7 ×10⁻⁶ cm/s, the Papp B→A at 90 min came out at 4.6 ×10⁻⁶ cm/s and the efflux ratio at 90 min was 1.7.
Take `CCCCCOC(=O)Nc1ncnn2c([C@]3(C#N)O[C@H](COC(=O)CC(C)C)[C@@H](O)[C@H]3O)ccc12` [Compound 93, ((2R,3S,4R,5R)-5-cyano-3,4-dihydroxy-5-(4-(((pentyloxy)carbonyl)amino)pyrrolo[2,1-f][1,2,4]triazin-7-yl)tetrahydrofuran-2-yl)methyl 3-methylbutanoate]: where the note is “Caco-2”, the apical-to-basolateral permeability (Papp A→B) at 90 min is 2.8 ×10⁻⁶ cm/s, the basolateral-to-apical permeability (Papp B→A) at 90 min was 1.5 ×10⁻⁶ cm/s and the efflux ratio at 90 min is 0.54.
`CC(C)[C@H](N)C(=O)OC[C@H]1O[C@@](C#N)(c2ccc3c(NC(=O)[C@@H](N)Cc4ccc(F)cc4)ncnn23)[C@H](O)[C@@H]1O` [Compound 94, ((2R,3S,4R,5R)-5-(4-((S)-2-amino-3-(4-fluorophenyl)propanamido)pyrrolo[2,1-f][1,2,4]triazin-7-yl)-5-cyano-3,4-dihydroxytetrahydrofuran-2-yl)methyl L-valinate]: for the setting “Caco-2”, the Papp A→B at 90 min was found to be 0.07 ×10⁻⁶ cm/s, the Papp B→A at 90 min was determined as 0.64 ×10⁻⁶ cm/s and the efflux ratio at 90 min is 9.1.
Regarding `N#C[C@@]1(c2ccc3c(NC(=O)[C@@H](N)Cc4ccc(F)cc4)ncnn23)O[C@H](COC(=O)CC2CCCCC2)[C@@H](O)[C@H]1O` [Compound 96, ((2R,3S,4R,5R)-5-(4-((S)-2-amino-3-(4-fluorophenyl)propanamido)pyrrolo[2,1-f][1,2,4]triazin-7-yl)-5-cyano-3,4-dihydroxytetrahydrofuran-2-yl)methyl 2-cyclohexylacetate], where the note is “Caco-2”, the Papp A→B at 90 min came to 0.45 ×10⁻⁶ cm/s, the apparent permeability from basolateral to apical (Papp B→A) at 90 min amounted to 5.2 ×10⁻⁶ cm/s and the efflux ratio at 90 min was found to be 12.
As to `N#C[C@@]1(c2ccc3c(NC(=O)[C@@H](N)Cc4ccc(F)cc4)ncnn23)O[C@H](COC(=O)Cc2ccccc2)[C@@H](O)[C@H]1O` [Compound 97, ((2R,3S,4R,5R)-5-(4-((S)-2-amino-3-(4-fluorophenyl)propanamido)pyrrolo[2,1-f][1,2,4]triazin-7-yl)-5-cyano-3,4-dihydroxytetrahydrofuran-2-yl)methyl 2-phenylacetate], under setting [1], the Papp A→B at 90 min came to 3.8 ×10⁻⁶ cm/s. The basolateral-to-apical permeability (Papp B→A) at 90 min under setting [2] amounted to 6.6 ×10⁻⁶ cm/s. Under setting [3], the efflux ratio at 90 min was found to be 1.8.
As to `CC(C)C(=O)OC[C@H]1O[C@@](C#N)(c2ccc3c(NC(=O)[C@@H](N)Cc4ccc(F)cc4)ncnn23)[C@H](O)[C@@H]1O` [Compound 100, ((2R,3S,4R,5R)-5-(4-((S)-2-amino-3-(4-fluorophenyl)propanamido)pyrrolo[2,1-f][1,2,4]triazin-7-yl)-5-cyano-3,4-dihydroxytetrahydrofuran-2-yl)methyl isobutyrate], under “Caco-2”, the Papp A→B at 90 min was 0.03 ×10⁻⁶ cm/s, the Papp B→A at 90 min came to 2.7 ×10⁻⁶ cm/s and the efflux ratio at 90 min stood at 92.
Taken in the same sequence, the figures for `CC(C)CC(=O)OC[C@H]1O[C@@](C#N)(c2ccc3c(NC(=O)[C@@H](N)Cc4ccc(F)cc4)ncnn23)[C@H](O)[C@@H]1O` [Compound 101, ((2R,3S,4R,5R)-5-(4-((S)-2-amino-3-(4-fluorophenyl)propanamido)pyrrolo[2,1-f][1,2,4]triazin-7-yl)-5-cyano-3,4-dihydroxytetrahydrofuran-2-yl)methyl 3-methylbutanoate] were 0.07 ×10⁻⁶ cm/s, 13 ×10⁻⁶ cm/s and 175.
For `CC(C)[C@H](N)C(=O)OC[C@H]1O[C@@](C#N)(c2ccc3c(NC(=O)c4ccccc4)ncnn23)[C@H](O)[C@@H]1O` [Compound 102, ((2R,3S,4R,5R)-5-(4-benzamidopyrrolo[2,1-f][1,2,4]triazin-7-yl)-5-cyano-3,4-dihydroxytetrahydrofuran-2-yl)methyl L-valinate], for the setting “Caco-2”, the Papp A→B at 90 min stood at 0.02 ×10⁻⁶ cm/s, the Papp B→A at 90 min turned out to be 6.7 ×10⁻⁶ cm/s and the efflux ratio at 90 min was 280.
Taken in the same sequence, the figures for `CC(=O)OC[C@H]1O[C@@](C#N)(c2ccc3c(NC(=O)c4ccccc4)ncnn23)[C@H](O)[C@@H]1O` [Compound 103, ((2R,3S,4R,5R)-5-(4-benzamidopyrrolo[2,1-f][1,2,4]triazin-7-yl)-5-cyano-3,4-dihydroxytetrahydrofuran-2-yl)methyl acetate] were 1.5 ×10⁻⁶ cm/s, 12 ×10⁻⁶ cm/s and 8.
For `N#C[C@@]1(c2ccc3c(NC(=O)c4ccccc4)ncnn23)O[C@H](COC(=O)Cc2ccccc2)[C@@H](O)[C@H]1O` [Compound 105, ((2R,3S,4R,5R)-5-(4-benzamidopyrrolo[2,1-f][1,2,4]triazin-7-yl)-5-cyano-3,4-dihydroxytetrahydrofuran-2-yl)methyl 2-phenylacetate], the apparent permeability from apical to basolateral (Papp A→B) at 90 min under setting [1] turned out to be 0.77 ×10⁻⁶ cm/s. Besides, under setting [2], the apparent permeability from basolateral to apical (Papp B→A) at 90 min was 1.4 ×10⁻⁶ cm/s. Under setting [3], the efflux ratio at 90 min was found to be 1.8.
With `CCC(=O)OC[C@H]1O[C@@](C#N)(c2ccc3c(NC(=O)c4ccccc4)ncnn23)[C@H](O)[C@@H]1O` [Compound 107, ((2R,3S,4R,5R)-5-(4-benzamidopyrrolo[2,1-f][1,2,4]triazin-7-yl)-5-cyano-3,4-dihydroxytetrahydrofuran-2-yl)methyl propionate], under setting [1], the apical-to-basolateral permeability (Papp A→B) at 90 min is 2.1 ×10⁻⁶ cm/s. Further, under setting [2], the Papp B→A at 90 min worked out at 7.5 ×10⁻⁶ cm/s. Besides, the efflux ratio at 90 min under setting [3] is 3.6.
For `CC(C)C(=O)OC[C@H]1O[C@@](C#N)(c2ccc3c(NC(=O)c4ccccc4)ncnn23)[C@H](O)[C@@H]1O` [Compound 108, ((2R,3S,4R,5R)-5-(4-benzamidopyrrolo[2,1-f][1,2,4]triazin-7-yl)-5-cyano-3,4-dihydroxytetrahydrofuran-2-yl)methyl isobutyrate], where the note is “Caco-2”, the apparent permeability from apical to basolateral (Papp A→B) at 90 min came out at 1.5 ×10⁻⁶ cm/s, the apparent permeability from basolateral to apical (Papp B→A) at 90 min was 2 ×10⁻⁶ cm/s and the efflux ratio at 90 min was 1.4.
On to `CC(C)CC(=O)OC[C@H]1O[C@@](C#N)(c2ccc3c(NC(=O)c4ccccc4)ncnn23)[C@H](O)[C@@H]1O` [Compound 109], for which, where the note is “Caco-2”, the Papp A→B at 90 min came out at 1.4 ×10⁻⁶ cm/s, the apparent permeability from basolateral to apical (Papp B→A) at 90 min worked out at 1.3 ×10⁻⁶ cm/s and the efflux ratio at 90 min worked out at 0.9.
The corresponding values for `CC(C)[C@H](N)C(=O)Nc1ncnn2c([C@]3(C#N)O[C@H](COC(=O)[C@@H](N)C(C)C)[C@@H](O)[C@H]3O)ccc12` [Compound 110, ((2R,3S,4R,5R)-5-(4-((S)-2-amino-3-methylbutanamido)pyrrolo[2,1-f][1,2,4]triazin-7-yl)-5-cyano-3,4-dihydroxytetrahydrofuran-2-yl)methyl L-valinate] are 0.02 ×10⁻⁶ cm/s, 0.33 ×10⁻⁶ cm/s and 15.
Taken in the same sequence, the figures for `CC(C)[C@H](N)C(=O)Nc1ncnn2c([C@]3(C#N)O[C@H](COC(=O)CC4CCCCC4)[C@@H](O)[C@H]3O)ccc12` [Compound 112, [(2R,3S,4R,5R)-5-{4-[(2S)-2-amino-3-methylbutanamido]pyrrolo[2,1-f][1,2,4]triazin-7-yl}-5-cyano-3,4-dihydroxyoxolan-2-yl]methyl 2-cyclohexylacetate] were 0.14 ×10⁻⁶ cm/s, 6.1 ×10⁻⁶ cm/s and 44.
For `CC(C)[C@H](N)C(=O)Nc1ncnn2c([C@]3(C#N)O[C@H](COC(=O)Cc4ccccc4)[C@@H](O)[C@H]3O)ccc12` [Compound 113], under setting [1], the apparent permeability from apical to basolateral (Papp A→B) at 90 min came out at 0.01 ×10⁻⁶ cm/s. For the same compound, the basolateral-to-apical permeability (Papp B→A) at 90 min under setting [2] amounted to 4.8 ×10⁻⁶ cm/s. For the same compound, under setting [3], the efflux ratio at 90 min amounted to 320.
As for `CCC(=O)OC[C@H]1O[C@@](C#N)(c2ccc3c(NC(=O)[C@@H](N)C(C)C)ncnn23)[C@H](O)[C@@H]1O` [Compound 115, ((2R,3S,4R,5R)-5-(4-((S)-2-amino-3-methylbutanamido)pyrrolo[2,1-f][1,2,4]triazin-7-yl)-5-cyano-3,4-dihydroxytetrahydrofuran-2-yl)methyl propionate], for the setting “Caco-2”, the Papp A→B at 90 min is 0.04 ×10⁻⁶ cm/s, the Papp B→A at 90 min worked out at 1.7 ×10⁻⁶ cm/s and the efflux ratio at 90 min was found to be 47.
The corresponding values for `CC(C)C(=O)OC[C@H]1O[C@@](C#N)(c2ccc3c(NC(=O)[C@@H](N)C(C)C)ncnn23)[C@H](O)[C@@H]1O` [Compound 116, [(2R,3S,4R,5R)-5-{4-[(2S)-2-amino-3-methylbutanamido]pyrrolo[2,1-f][1,2,4]triazin-7-yl}-5-cyano-3,4-dihydroxyoxolan-2-yl]methyl 2-methylpropanoate] are 0.15 ×10⁻⁶ cm/s, 1.2 ×10⁻⁶ cm/s and 7.9.
Taken in the same sequence, the figures for `CC(C)CC(=O)OC[C@H]1O[C@@](C#N)(c2ccc3c(NC(=O)[C@@H](N)C(C)C)ncnn23)[C@H](O)[C@@H]1O` [Compound 117, [(2R,3S,4R,5R)-5-{4-[(2S)-2-amino-3-methylbutanamido]pyrrolo[2,1-f][1,2,4]triazin-7-yl}-5-cyano-3,4-dihydroxyoxolan-2-yl]methyl 3-methylbutanoate] were 0.22 ×10⁻⁶ cm/s, 3.3 ×10⁻⁶ cm/s and 15.
The corresponding values for `CC(C)[C@H](N)C(=O)O[C@H]1[C@@H](O)[C@](C#N)(c2ccc3c(NC(=O)c4ccccc4)ncnn23)O[C@@H]1CO` [Compound 128, (2R,3S,4R,5R)-5-(4-benzamidopyrrolo[2,1-f][1,2,4]triazin-7-yl)-5-cyano-4-hydroxy-2-(hydroxymethyl)tetrahydrofuran-3-yl L-valinate] are 0.3 ×10⁻⁶ cm/s, 6.4 ×10⁻⁶ cm/s and 22.

Usually Papp A→B stands for the apparent permeability from the apical to the basolateral side of a cell layer. Broadly, the Papp B→A is the apparent permeability from the basolateral to the apical side of a cell layer.
